Results from US9061984B2 (University of Louisville Research Foundation, Inc., priority 2008, dated 2015).
Converted amounts (≈) assume the structure as drawn. Read-outs that look alike come from different tables or passages of the source.

Legend:
K562 cells = assay: Cell growth inhibition bioassay (sulforhodamine B); assay type: cell-based, human; conditions: 48 h, SRB; for GI50: Homo sapiens, K562, read-out: GI50 in indicated cell line: K562
Summary of the method: (§1)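 Cells were exposed to compound alongside matched solvent controls, then stained with sulforhodamine B. Percent growth inhibition was calculated from dye absorbance against the control.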

M-14 cells = assay: Cell growth inhibition bioassay (sulforhodamine B); assay type: cell-based, human; conditions: 48 h, SRB; for GI50: Homo sapiens, M14, read-out: GI50 in indicated cell line: M-14
Summary of the method: as §1

MCF-7 cells = assay: Cell growth inhibition bioassay (sulforhodamine B); assay type: cell-based, human; conditions: 48 h, SRB; for GI50: Homo sapiens, MCF7, read-out: GI50 in indicated cell line: MCF-7
Summary of the method: (§2)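 Cytotoxicity is read by sulforhodamine B colorimetry following the Skehan protocol; values are growth inhibition relative to solvent-only wells.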

DU145 cells = assay: Cell growth inhibition bioassay (sulforhodamine B); assay type: cell-based, human; conditions: 48 h, SRB; for GI50: Homo sapiens, DU-145, read-out: GI50 in indicated cell line: DU145
Summary of the method: as §2

HT-29 cells = assay: Cell growth inhibition bioassay (sulforhodamine B); assay type: cell-based, human; conditions: 48 h, SRB; for GI50: Homo sapiens, HT-29, read-out: GI50 in indicated cell line: HT-29
Summary of the method: as §1

H460 cells = assay: Cell growth inhibition bioassay (sulforhodamine B); assay type: cell-based, human; conditions: 48 h, SRB; for GI50: Homo sapiens, NCI-H460, read-out: GI50 in indicated cell line: H460
Summary of the method: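 Growth inhibition was measured colorimetrically with sulforhodamine B staining and expressed as percent inhibition relative to solvent-treated controls. Cell lines were human: MCF-7 breast adenocarcinoma, DU145 and PC3 prostate carcinoma/adenocarcinoma, H460 large cell lung cancer.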

[1] = Toxicity to peritoneal macrophages (Trypan Blue count); assay type: cell-based, BALB/C mouse; conditions: BALB/C, mouse
[2] = Cytotoxicity on VERO cells (MTT), anti-T. cruzi study; conditions: African green monkey, VERO cells
[3] = system: axenic amastigotes of L. amazonensis (strain MHOM/BR/76/LTB-012); conditions: Table 8b
M. tuberculosis MDR = assay: Anti-tuberculosis bioassay (tetrazolium microplate MIC); assay type: cell-based; conditions: Mycobacterium tuberculosis, read-out: Mycobacterium MIC MDR
3T3 cells = assay: Cell growth inhibition bioassay (sulforhodamine B); assay type: cell-based, mouse; conditions: 48 h, SRB; for GI50: Mus musculus, NIH3T3, read-out: GI50 in indicated cell line: 3T3
Summary of the method: as §1

[4] = system: Trypanosoma cruzi (Tulahuen C4); assay: In vitro anti-T. cruzi activity (β-galactosidase CPRG colorimetric assay in VERO monolayer); assay type: cell-based; conditions: for Selectivity Index Lab B: IC50, VERO/IC50, T. cruzi; for inhibition at 10 µg/mL / IC50: Trypanosoma cruzi, TULAHUEN, Vero; for inhibition at 10 µg/mL: 120 h, 10 μg/mL of each compound, 120 hours, read-out: T. cruzi Inhib. (%)
VERO cells [5] = assay: Cell growth inhibition bioassay (sulforhodamine B); assay type: cell-based, African Green Monkey; conditions: 48 h, SRB; for GI50: Chlorocebus sabaeus, Vero, read-out: GI50 in indicated cell line: VERO
Summary of the method: as §1

M. tuberculosis H37Rv [6] = assay: Anti-tuberculosis bioassay (tetrazolium microplate MIC); assay type: cell-based; conditions: Mycobacterium tuberculosis, read-out: Mycobacterium MIC H37Rv, Table 5
[7] = system: axenic amastigotes of L. amazonensis (strain MHOM/BR/76/LTB-012); assay: microbe, parasite or virus in culture; conditions: Leishmania amazonensis
VERO cells [8] = assay: VERO cells IC50 (Table 5); assay type: cell-based, African green monkey; conditions: Chlorocebus sabaeus
M. tuberculosis H37Rv [9] = assay: Conventional aerobic (MABA) culture assay, luminescence MIC; assay type: cell-based, Mycobacterium tuberculosis; conditions: for MIC: Mycobacterium tuberculosis, 168 h
L. amazonensis = conditions: intralesional, compounds 5 mg/kg/day, Glucantime 33 mg Sb(v)/kg/day; for Mean lesion wt (mg) (±SD): BALB/c mice n=10; for % Variation of lesion wt / % reduction of parasite burden in the lesion: vs control
L. peruviana LCA08 = assay: Activity against macrophages infected with Leishmania amastigotes; conditions: Leishmania peruviana, Macrophage, read-out: IC50 L. peruviana LCA08
L. braziliensis PER006 = assay: as above; conditions: Leishmania braziliensis, Macrophage, read-out: IC50 L. braziliensis PER006
peritoneal macrophages = assay: Toxicity to peritoneal macrophages (Trypan Blue count); assay type: cell-based, BALB/C mouse
VERO cells [10] = system: VERO cells
in vitro = conditions: African green monkey
[11] = IC50 Cytotoxicity Against Macrophages
[12] = IC50 - VERO Cytotoxicity, Table 2
[13] = Lab B, read-out: T. cruzi IC50 Lab B
[14] = Table 2, read-out: IC50 - T. cruzi
[15] = read-out: IC50 Cytotoxicity Against Amastigotes

Structure (SMILES) | GI50 (K562 cells) [µg/mL] | GI50 (M-14 cells) [µg/mL] | GI50 (MCF-7 cells) [µg/mL] | GI50 (DU145 cells) [µg/mL] | GI50 (HT-29 cells) [µg/mL] | GI50 (H460 cells) [µg/mL] | IC50 at 48 h ([1]; Cytotoxicity Macrophages IC50) [µM] | IC50 at 48 h [1, 11] [µM] | IC50 ([2]; Cytotoxicity VERO Lab B, Lab B) [µg/mL] | IC50 [2, 12] [µg/mL] | Selectivity Index [3] | MIC (M. tuberculosis MDR) [µg/mL] | GI50 (3T3 cells) [µg/mL] | Selectivity Index Lab B ([4]; Lab B) | inhibition at 10 µg/mL [4] [%] | IC50 [4, 13] [µg/mL] | IC50 [4, 14] [µg/mL] | GI50 (VERO cells [5]) [µg/mL] | MIC (M. tuberculosis H37Rv [6]) [µg/mL] | MIC (M. tuberculosis H37Rv [9]; aerobic, 7 days, H37Rv) [µg/mL] | also measured
Fc1ccccc1/C=N\Nc1ncnc2sc3c(c12)CCCC3 [II-27] | 26.5 (≈ 81.2 µM) | > 93.8 | 24.5 (≈ 75 µM) | > 93.8 | > 93.8 | > 93.8 | 3.3 | > 10 | 6 (≈ 18.4 µM) | 7 (≈ 21.4 µM) | 3.1 | 3.12 (≈ 9.56 µM) | > 93.8 | 1.7 | 78.9 | 3.5 (≈ 10.7 µM) | 4.37 (≈ 13.4 µM) | > 93.8 | 3.12 (≈ 9.56 µM) | > 100 | IC50 [7, 15]: 3.2 µM; IC50 ([7]; read-out: L. amazonensis IC50): 1.1 µM; IC50 (VERO cells [8]): 27.7 µg/mL (≈ 84.9 µM)
Clc1ccc(/C=N\Nc2ncnc3sc4c(c23)CCCC4)cc1 [II-28] | 2.3 (≈ 6.71 µM) | > 62.5 | 2.9 (≈ 8.46 µM) | 5 (≈ 14.6 µM) | 5.2 (≈ 15.2 µM) | 4.4 (≈ 12.8 µM) | 48.8 | > 10 | 7 (≈ 20.4 µM) | 27 (≈ 78.8 µM) | 85.2 | 6.25 (≈ 18.2 µM) | 6.4 (≈ 18.7 µM) | 1.6 | 74.7 | 4.5 (≈ 13.1 µM) | 6.5 (≈ 19 µM) | 3 (≈ 8.75 µM) | 12.5 (≈ 36.5 µM) | > 100 | Mean lesion size (mm) (L. amazonensis; after 4 weeks treatment): 3.6 mm; Mean parasite quantification (per 10^6) in lesion per mg (±SD) (L. amazonensis; after 4 weeks treatment): 0.92 (±0.32) amastigotes (×10^6)/mg; Mean lesion wt (mg) (±SD) (L. amazonensis; after 4 weeks treatment): 60.4 (±31.3) mg; % Variation of lesion wt (L. amazonensis; after 4 weeks treatment): 0%; % reduction of parasite burden in the lesion (L. amazonensis; after 4 weeks treatment): 46%; Mean lesion size (mm) (L. amazonensis; after 7 weeks treatment): 5.2 mm; Mean parasite quantification (per 10^6) in lesion per mg (±SD) (L. amazonensis; after 7 weeks treatment): 1.26 (±0.02) amastigotes (×10^6)/mg; Mean lesion wt (mg) (±SD) (L. amazonensis; after 7 weeks treatment): 169.1 (±15.3) mg; % Variation of lesion wt (L. amazonensis; after 7 weeks treatment): −90%; % reduction of parasite burden in the lesion (L. amazonensis; after 7 weeks treatment): 25%; IC50 (L. peruviana LCA08): > 10 µg/mL; IC50 ([4]; Lab A, read-out: T. cruzi IC50 Lab A): 1.6 µg/mL (≈ 4.67 µM); IC50 (L. braziliensis PER006): 5.9 µg/mL (≈ 17.2 µM); IC50 [7, 15]: 3.3 µM; IC50 ([7]; read-out: L. amazonensis IC50): 0.6 µM; IC50 (VERO cells [8]): > 80 µg/mL
CC(C)=NNc1ncnc2sc3c(c12)CCCC3 [II-44] |  |  |  |  |  |  |  |  |  |  |  |  |  |  |  |  |  |  |  |  | GI50 in indicated cell line: K562 (K562 cells): 3.5 µg/mL (≈ 13.4 µM); GI50 in indicated cell line: M-14 (M-14 cells): 6.1 µg/mL (≈ 23.4 µM); GI50 in indicated cell line: MCF-7 (MCF-7 cells): 3.2 µg/mL (≈ 12.3 µM); GI50 in indicated cell line: DU145 (DU145 cells): 3.0 µg/mL (≈ 11.5 µM); GI50 in indicated cell line: HT-29 (HT-29 cells): 8.6 µg/mL (≈ 33 µM); GI50 in indicated cell line: H460 (H460 cells): 2.4 µg/mL (≈ 9.22 µM); Cytotoxicity VERO cell (VERO cell): 32.7 µg/mL; IC50 (peritoneal macrophages): 62 µM; IC50 ([3]; read-out: L. amazonensis IC50): 10.6 µM; Cytotoxicity VERO Lab B (VERO cells [10]): 10.0; GI50 in indicated cell line: 3T3 (3T3 cells): <0.98 µg/mL; T. cruzi IC50 Lab A ([4]; Lab A): 3.2 µg/mL; T. cruzi IC50 Lab B ([4]; Lab B): 3.7 µg/mL; GI50 in indicated cell line: VERO (VERO cells [5]): 3.7 µg/mL (≈ 14.2 µM); MIC MABA (M. tuberculosis H37Rv [9]; aerobic, 7 days, H37Rv): 62.4 µg/mL (≈ 240 µM)
CO[C@H]1/C=C/O[C@@]2(C)Oc3c(C)c(O)c4c(O)c(c(/C=N/N5CCN(C)CC5)c(O)c4c3C2=O)NC(=O)/C(C)=C\C=C\[C@H](C)[C@H](O)[C@@H](C)[C@@H](O)[C@@H](C)[C@H](OC(C)=O)[C@@H]1C [Rifampin, reference compound] |  |  |  |  |  |  |  |  |  |  |  |  |  |  |  |  |  |  |  | 0.09 (≈ 0.109 µM) | IC50 (in vitro): 97.2 µg/mL (≈ 118 µM); Selectivity Index H37Rv (M. tuberculosis H37Rv [9]; VERO vs MABA MIC): 1025.8
